# Tests used:
# DU-145 [1] = assay: Induction of apoptosis in human DU145 cells assessed as late apoptotic cells at 8 uM measured after 24 hrs by Annexin-V/FITC and propidium iodide staining based flow cytometry (reference value: 1.49 %); type: functional
# HeLa = assay: Cytotoxicity against human HeLa cells assessed as cell growth inhibition measured after 24 hrs by MTT assay; type: functional, cell-based
# DU-145 [2] = assay: Induction of apoptosis in human DU145 cells assessed as live cells at 8 uM measured after 24 hrs by Annexin-V/FITC and propidium iodide staining based flow cytometry (reference value: 95.62 %); type: functional
# DU-145 [3] = assay: Induction of apoptosis in human DU145 cells assessed as necrotic cells at 8 uM measured after 24 hrs by Annexin-V/FITC and propidium iodide staining based flow cytometry (reference value: 2.64 %); type: functional
# DU-145 [4] = assay: Induction of apoptosis in human DU145 cells assessed as early apoptotic cells at 8 uM measured after 24 hrs by Annexin-V/FITC and propidium iodide staining based flow cytometry (reference value: 0.25 %); type: functional
# DU-145 [5] = assay: Cytotoxicity against human DU145 cells assessed as cell growth inhibition measured after 24 hrs by MTT assay; type: functional, cell-based; conditions: DU-145, 24 h
# DU-145 [6] = assay: Induction of apoptosis in human DU145 cells assessed as late apoptotic cells at 5.2 uM measured after 24 hrs by Annexin-V/FITC and propidium iodide staining based flow cytometry (reference value: 1.49 %); type: functional
# DU-145 [7] = assay: Cell cycle arrest in human DU145 cells assessed as accumulation at G0/G1 phase at 5.2 uM measured after 24 hrs by RNase A/propidium iodide staining based flow cytometry analysis (reference value: 51.75 %); type: functional
# DU-145 [8] = assay: Induction of apoptosis in human DU145 cells assessed as early apoptotic cells at 5.2 uM measured after 24 hrs by Annexin-V/FITC and propidium iodide staining based flow cytometry (reference value: 0.25 %); type: functional
# A549 = assay: Cytotoxicity against human A549 cells assessed as cell growth inhibition measured after 24 hrs by MTT assay; type: functional, cell-based; conditions: A549, 24 h
# DU-145 [9] = assay: Induction of apoptosis in human DU145 cells assessed as live cells at 5.2 uM measured after 24 hrs by Annexin-V/FITC and propidium iodide staining based flow cytometry (reference value: 95.62 %); type: functional
# SK-OV-3 = assay: Cytotoxicity against human SKOV3 cells assessed as cell growth inhibition measured after 24 hrs by MTT assay; type: functional, cell-based; conditions: SK-OV-3, 24 h
# DU-145 [10] = assay: Induction of apoptosis in human DU145 cells assessed as necrotic cells at 5.2 uM measured after 24 hrs by Annexin-V/FITC and propidium iodide staining based flow cytometry (reference value: 2.64 %); type: functional
# COLO 205 = assay: Cytotoxicity against human COLO205 cells assessed as cell growth inhibition measured after 24 hrs by MTT assay; type: functional, cell-based; conditions: COLO 205, 24 h
smiles,measurement,setting,value
C/C=C(\C)C(=O)O[C@@H]1[C@]2(OC(=O)CCCC)C=C3C4=CC(=O)O[C@@H](c5ccoc5)[C@]4(C)CC[C@@H]3[C@@]3(C)[C@H](C[C@]1(C)[C@H]3[C@@H](O)C(=O)OC)O2,Activity,DU-145 [1],8.11%
same,IC50,HeLa,> 100 µM
same,Activity,DU-145 [2],85.39%
same,Activity,DU-145 [3],5.11%
same,Activity,DU-145 [4],1.39%
same,IC50,DU-145 [5],5.2 µM
same,Activity,DU-145 [6],10.35%
same,Activity,DU-145 [7],42.93%
same,Activity,DU-145 [8],1.74%
same,IC50,A549,9.4 µM
same,Activity,DU-145 [9],83.45%
same,IC50,SK-OV-3,13.7 µM
same,Activity,DU-145 [10],4.46%
same,IC50,COLO 205,4 µM

# — ChEMBL document CHEMBL4414608, “Secophragmalin-Type Limonoids from Trichilia connaroides: Isolation, Semisynthesis, and Their Cytotoxic Activities” (J Nat Prod, 2019)
